Test system: patients after acute myocardial infarction
Test: Life quality, Seattle Angina Questionnaire (SAQ), same clinical trial
Type: in vivo, human
Details: 6 months after treatment
Excerpt: 3508 patients who were in accordance with the diagnostic standards of AMI for 28 days to 2 years and differentiated as Qi deficiency and blood stagnation syndrome by TCM were studied. 0.5 g Chinese medicine composition prepared by the method of EXAMPLE 1 (Coded as QSYQ) was administrated half an hour after meal, 3 times per day.
There were 19 questions in the Seattle angina questionnaire (SAQ), including 5 parts: physical limitation (PL), anginal stability (AS), anginal frequency (AF), treatment satisfaction (TS) and disease perception (DP). After being given necessary explanation by doctors, the questions were answered independently by patients.
They included the overall survival time, angina pectoris score, TCM symptom score and life quality score, where angina pectoris score, TCM symptom score and life quality score were evaluated at randomization, in 1st, 3rd, 6th, 9th, 12th month after treatment and 18th month after follow-up.
All evaluation results of SAQ were described during the period of observation, and Wilcoxon rank sum test was used for inter-group comparison.
The evaluation results in the SAQ were depicted in different observations, and inter-group comparison was tested by Wilcoxon Rank-sum test.

CC(=O)Oc1ccccc1C(=O)O [Control group, aspirine]
SAQ Question 1-3: Not limited, number of patients (FAS): 1358
SAQ Question 1-3: Not limited, percent of patients (FAS): (77.87%)
SAQ Question 1-3: Other reasons, number of patients (FAS): 11
SAQ Question 1-3: Other reasons, percent of patients (FAS): (0.63%)
SAQ Question 1-3: Severely limited, number of patients (FAS): 4
SAQ Question 1-3: Severely limited, percent of patients (FAS): (0.23%)
SAQ Question 1-3: Slightly limited, number of patients (FAS): 265
SAQ Question 1-3: Slightly limited, percent of patients (FAS): (15.19%)
SAQ Question 1-4: Mildly limited, number of patients (FAS): 314
SAQ Question 1-4: Mildly limited, percent of patients (FAS): (18.00%)
SAQ Question 1-4: Moderately limited, number of patients (FAS): 97
SAQ Question 1-4: Moderately limited, percent of patients (FAS): (5.56%)
SAQ Question 1-4: Not limited, number of patients (FAS): 731
SAQ Question 1-4: Not limited, percent of patients (FAS): (41.92%)
SAQ Question 1-4: Other reasons, number of patients (FAS): 13
SAQ Question 1-4: Other reasons, percent of patients (FAS): (0.75%)
SAQ Question 1-4: Severely limited, number of patients (FAS): 29
SAQ Question 1-4: Severely limited, percent of patients (FAS): (1.66%)
SAQ Question 1-4: Slightly limited, number of patients (FAS): 560
SAQ Question 1-4: Slightly limited, percent of patients (FAS): (32.11%)
SAQ Question 1-5: Mildly limited, number of patients (FAS): 292
SAQ Question 1-5: Mildly limited, percent of patients (FAS): (16.75%)
SAQ Question 1-5: Moderately limited, number of patients (FAS): 137
SAQ Question 1-5: Moderately limited, percent of patients (FAS): (7.86%)
SAQ Question 1-5: Not limited, number of patients (FAS): 755
SAQ Question 1-5: Not limited, percent of patients (FAS): (43.32%)
SAQ Question 1-5: Other reasons, number of patients (FAS): 13
SAQ Question 1-5: Other reasons, percent of patients (FAS): (0.75%)
SAQ Question 1-5: Severely limited, number of patients (FAS): 20
SAQ Question 1-5: Severely limited, percent of patients (FAS): (1.15%)
SAQ Question 1-5: Slightly limited, number of patients (FAS): 526
SAQ Question 1-5: Slightly limited, percent of patients (FAS): (30.18%)
SAQ Question 1-9: Mildly limited, % of cases (FAS): (19.93%)
SAQ Question 1-9: Mildly limited, cases (FAS): 341
SAQ Question 1-9: Moderately limited, % of cases (FAS): (20.86%)
SAQ Question 1-9: Moderately limited, cases (FAS): 357
SAQ Question 1-9: Not limited, % of cases (FAS): (3.39%)
SAQ Question 1-9: Not limited, cases (FAS): 58
SAQ Question 1-9: Other limited, % of cases (FAS): (6.20%)
SAQ Question 1-9: Other limited, cases (FAS): 106
SAQ Question 1-9: Severely limited, % of cases (FAS): (35.42%)
SAQ Question 1-9: Severely limited, cases (FAS): 606
SAQ Question 1-9: Slightly limited, % of cases (FAS): (14.20%)
SAQ Question 1-9: Slightly limited, cases (FAS): 243
SAQ 2nd question: Clearly increased, % of cases (PP): (0.21%)
SAQ 2nd question: Clearly increased, cases (PP): 3
SAQ 2nd question: Clearly reduced, % of cases (PP): (24.52%)
SAQ 2nd question: Clearly reduced, cases (PP): 355
SAQ 2nd question: Same, % of cases (PP): (36.46%)
SAQ 2nd question: Same, cases (PP): 528
SAQ 2nd question: Slightly increased, % of cases (PP): (2.76%)
SAQ 2nd question: Slightly increased, cases (PP): 40
SAQ 2nd question: Slightly reduced, % of cases (PP): (36.05%)
SAQ 2nd question: Slightly reduced, cases (PP): 522
SAQ 3rd question: 1-2 times per week, % of cases (PP): (36.05%)
SAQ 3rd question: 1-2 times per week, cases (PP): 522
SAQ 3rd question: 1-3 times per day, % of cases (PP): (2.76%)
SAQ 3rd question: 1-3 times per day, cases (PP): 40
SAQ 3rd question: <1 time per week, % of cases (PP): (24.52%)
SAQ 3rd question: <1 time per week, cases (PP): 355
SAQ 3rd question: No onset, % of cases (PP): (0.00%)
SAQ 3rd question: No onset, cases (PP): 0
SAQ 3rd question: ≧3 times per week, % of cases (PP): (36.46%)
SAQ 3rd question: ≧3 times per week, cases (PP): 528
SAQ 3rd question: ≧4 times per day, % of cases (PP): (0.21%)
SAQ 3rd question: ≧4 times per day, cases (PP): 3
SAQ Question 1-3: Mildly limited, number of patients (PP): 65
SAQ Question 1-3: Mildly limited, percent of patients (PP): (4.48%)
SAQ Question 1-3: Moderately limited, number of patients (PP): 14
SAQ Question 1-3: Moderately limited, percent of patients (PP): (0.97%)
SAQ Question 1-3: Not limited, number of patients (PP): 1131
SAQ Question 1-3: Not limited, percent of patients (PP): (78.00%)
SAQ Question 1-3: Other reasons, number of patients (PP): 9
SAQ Question 1-3: Other reasons, percent of patients (PP): (0.62%)
SAQ Question 1-3: Severely limited, number of patients (PP): 4
SAQ Question 1-3: Severely limited, percent of patients (PP): (0.28%)
SAQ Question 1-3: Slightly limited, number of patients (PP): 227

From patent US9211310B2, “Use of a Chinese medicine composition in preparing medicaments for treating secondary prevention of myocardial infarction” (TASLY PHARMACEUTICAL GROUP CO., LTD, priority 2010, dated 2015)
